Data from the NIST ThermoML archive (doi:10.1016/j.jct.2014.12.004).
± gives the expanded uncertainty stated by the source.

Details: Crystal; DTA

Row | SMILES | Normal melting temperature
1 | O=c1c2ccccc2nc2n1CCc1c-2[nH]c2ccccc12 [Rutecarpine] | 259.1 ± 0.4 °C
2 | CN1c2ccccc2C(=O)N2CCc3c([nH]c4ccccc34)[C@H]21 [evodiamine] | 275.1 ± 0.4 °C
